Molecular target: T1, SIRT1 (Homo sapiens, UniProt Q96EB6)
T1 sequence (Q96EB6 1-747): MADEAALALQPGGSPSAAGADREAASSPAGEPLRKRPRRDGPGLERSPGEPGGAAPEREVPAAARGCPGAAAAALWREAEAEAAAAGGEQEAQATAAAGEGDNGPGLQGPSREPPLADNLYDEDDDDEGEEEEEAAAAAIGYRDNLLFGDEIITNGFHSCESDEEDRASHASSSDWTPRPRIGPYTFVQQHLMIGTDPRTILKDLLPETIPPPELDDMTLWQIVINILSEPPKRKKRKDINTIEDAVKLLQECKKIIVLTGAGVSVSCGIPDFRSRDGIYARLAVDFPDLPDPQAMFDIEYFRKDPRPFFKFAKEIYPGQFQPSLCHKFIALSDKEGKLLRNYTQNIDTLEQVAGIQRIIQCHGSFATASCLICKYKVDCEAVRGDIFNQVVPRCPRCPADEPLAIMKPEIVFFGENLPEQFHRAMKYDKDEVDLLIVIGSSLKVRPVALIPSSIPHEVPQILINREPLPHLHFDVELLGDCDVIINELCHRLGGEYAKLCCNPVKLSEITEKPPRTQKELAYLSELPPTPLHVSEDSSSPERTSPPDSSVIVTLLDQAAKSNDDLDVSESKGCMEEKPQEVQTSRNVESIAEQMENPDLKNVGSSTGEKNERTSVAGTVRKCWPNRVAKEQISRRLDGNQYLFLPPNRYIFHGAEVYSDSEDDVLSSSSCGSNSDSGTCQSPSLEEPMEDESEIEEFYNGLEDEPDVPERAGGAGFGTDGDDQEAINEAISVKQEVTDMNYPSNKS
Assay: Mass spectrometry based assay to identify modulators of SIRT1 activity (deacetylation of p53-based acetylated peptide substrate)
Assay type: biochemical
Settings: 10 nM SIRT1, 0.5 μM peptide substrate, 120 μM βNAD+, 25 minutes at 25° C.; for EC1.5: SIRT1 activation
Source text: A mass spectrometry based assay was used to identify modulators of SIRT1 activity. The mass spectrometry based assay utilizes a peptide having 20 amino acid residues as follows: Ac-EE-K(biotin)-GQSTSSHSK(Ac)NleSTEG-K(5TMR)-EE-NH2 (SEQ ID NO: 1) wherein K(Ac) is an acetylated lysine residue and Nle is a norleucine. The peptide is labeled with the fluorophore 5TMR (excitation 540 nm/emission 580 nm) at the C-terminus. The sequence of the peptide substrate is based on p53 with several modifications. In addition, the methionine residue naturally present in the sequence was replaced with the norleucine because the methionine may be susceptible to oxidation during synthesis and purification.
The mass spectrometry assay is conducted as follows: 0.5 μM peptide substrate and 120 μM βNAD^+ is incubated with 10 nM SIRT1 for 25 minutes at 25° C. in a reaction buffer (50 mM Tris-acetate pH 8, 137 mM NaCl, 2.7 mM KCl, 1 mM MgCl2, 5 mM DTT, 0.05% BSA). Test compounds may be added to the reaction as described above. The SirT1 gene is cloned into a T7-promoter containing vector and transformed into BL21(DE3). After the 25 minute incubation with SIRT1, 10 μL of 10% formic acid is added to stop the reaction. Reactions are sealed and frozen for later mass spec analysis. Determination of the mass of the substrate peptide allows for precise determination of the degree of acetylation (i.e. starting material) as compared to deacetylated peptide (product).
A control for inhibition of sirtuin activity is conducted by adding 1 μL of 500 mM nicotinamide as a negative control at the start of the reaction (e.g., permits determination of maximum sirtuin inhibition). A control for activation of sirtuin activity is conducted using 10 nM of sirtuin protein, with 1 μL of DMSO in place of compound, to determine the amount of deacetylation of the substrate at a given timepoint within the linear range of the assay. This timepoint is the same as that used for test compounds and, within the linear range, the endpoint represents a change in velocity.
For the above assay, SIRT1 protein was expressed and purified as follows. The SirT1 gene was cloned into a T7-promoter containing vector and transformed into BL21(DE3). The protein was expressed by induction with 1 mM IPTG as an N-terminal His-tag fusion protein at 18° C. overnight and harvested at 30,000×g. Cells were lysed with lysozyme in lysis buffer (50 mM Tris-HCl, 2 mM Tris[2-carboxyethyl]phosphine (TCEP), 10 μM ZnCl2, 200 mM NaCl) and further treated with sonication for 10 min for complete lysis. The protein was purified over a Ni-NTA column (Amersham) and fractions containing pure protein were pooled, concentrated and run over a sizing column (Sephadex S200 26/60 global). The peak containing soluble protein was collected and run on an Ion-exchange column (MonoQ). Gradient elution (200 mM-500 mM NaCl) yielded pure protein. This protein was concentrated and dialyzed against dialysis buffer (20 mM Tris-HCl, 2 mM TCEP) overnight. The protein was aliquoted and frozen at −80° C. until further use.
Sirtuin modulating compounds that activated SIRT1 were identified using the assay described above and are shown below in Table 1. The EC1-5 values for the activating compounds are represented by A′ (EC1.5<250 nM), A (EC1.5≧250 nM and ≦1 uM), B (EC1.5>1 and ≦10 uM), or C (EC1.5>10 uM). The percent maximum fold activation is represented by A (Fold activation≧300%), B (Fold Activation≧150% and <300%), or C (Fold Activation<150%).

| FOLD ACT. (percent maximum fold activation) | EC1.5 | Structure (SMILES) |
| --- | --- | --- |
| A (Fold activation≧300%) | A (EC1.5≧250 nM and ≦1 uM) | O=C(Nc1ccccc1-c1nc2ccncc2s1)c1cc(NCc2ccncc2)nc(-c2ccccc2)n1 [Compound 32] |
| A (Fold activation≧300%) | A′ (EC1.5<250 nM) | O=C(Nc1ccccc1-c1nc2cccnc2s1)c1cc(NCCO)nc(-c2ccccc2)n1 [Compound 39] |
| A (Fold activation≧300%) | A′ (EC1.5<250 nM) | O=C(Nc1ccccc1-c1nc2cccnc2s1)c1cc(NCCCO)nc(-c2ccccc2)n1 [Compound 40] |
| C (Fold Activation<150%) | C (EC1.5>10 uM) | CCCCNc1cc(C(=O)Nc2ccccc2-c2nc3cccnc3s2)nc(-c2ccccc2)n1 [Compound 42] |
| A (Fold activation≧300%) | A (EC1.5≧250 nM and ≦1 uM) | O=C(O)CCNc1cc(C(=O)Nc2ccccc2-c2nc3cccnc3s2)nc(-c2ccccc2)n1 [Compound 44] |
| B (Fold Activation≧150% and <300%) | B (EC1.5>1 and ≦10 uM) | CSCCNc1cc(C(=O)Nc2ccccc2-c2nc3cccnc3s2)nc(-c2ccccc2)n1 [Compound 45] |
| A (Fold activation≧300%) | A′ (EC1.5<250 nM) | CS(=O)(=O)CCNc1cc(C(=O)Nc2ccccc2-c2nc3cccnc3s2)nc(-c2ccccc2)n1 [Compound 46] |
| A (Fold activation≧300%) | A (EC1.5≧250 nM and ≦1 uM) | CC(C)NCCNc1cc(C(=O)Nc2ccccc2-c2nc3cccnc3s2)nc(-c2ccccc2)n1 [Compound 52] |
| B (Fold Activation≧150% and <300%) | A (EC1.5≧250 nM and ≦1 uM) | Cc1nc(CCNc2cc(C(=O)Nc3ccccc3-c3nc4cccnc4s3)nc(-c3ccccc3)n2)cs1 [Compound 53] |
| C (Fold Activation<150%) | C (EC1.5>10 uM) | O=C(Nc1ccccc1-c1nc2cccnc2s1)c1cc(NCc2ccccc2)nc(-c2ccccc2)n1 [Compound 54] |
| B (Fold Activation≧150% and <300%) | A (EC1.5≧250 nM and ≦1 uM) | O=C(Nc1ccccc1-c1nc2cccnc2s1)c1cc(NCc2ccccn2)nc(-c2ccccc2)n1 [Compound 55] |
| A (Fold activation≧300%) | A′ (EC1.5<250 nM) | O=C(Nc1ccccc1-c1nc2ccncc2s1)c1cc(NCCN2CCCC2)nc(-c2ccccc2)n1 [Compound 56] |
| A (Fold activation≧300%) | A (EC1.5≧250 nM and ≦1 uM) | O=C(Nc1ccccc1-c1nc2ccncc2s1)c1cc(NCc2ccccn2)nc(-c2ccccc2)n1 [Compound 57] |
| A (Fold activation≧300%) | A (EC1.5≧250 nM and ≦1 uM) | O=C(Nc1ccccc1-c1nc2cccnc2s1)c1cc(NCc2cccnc2)nc(-c2ccccc2)n1 [Compound 58] |
| A (Fold activation≧300%) | A (EC1.5≧250 nM and ≦1 uM) | O=C(Nc1ccccc1-c1nc2cccnc2s1)c1cc(NCc2ccncc2)nc(-c2ccccc2)n1 [Compound 59] |
| C (Fold Activation<150%) | C (EC1.5>10 uM) | O=C(Nc1ccccc1-c1nc2cccnc2s1)c1cc(NCCNc2ccccc2)nc(-c2ccccc2)n1 [Compound 60] |

More lines, now with the values behind:

| Structure (SMILES) | FOLD ACT. (percent maximum fold activation) | EC1.5 |
| --- | --- | --- |
| CN(C)CCNCCOc1cc(C(=O)Nc2ccccc2-c2nc3cccnc3s2)nc(-c2ccccc2)c1 [Compound 33] | A (Fold activation≧300%) | A′ (EC1.5<250 nM) |
| O=C(Nc1ccccc1-c1nc2cccnc2s1)c1cc(O)cc(-c2ccccc2)n1 [Compound 34] | A (Fold activation≧300%) | A (EC1.5≧250 nM and ≦1 uM) |
| C[C@@H]1CN(c2cc(C(=O)Nc3ccccc3-c3nc4cccnc4s3)nc(-c3ccccc3)n2)C[C@H](C)N1 [Compound 35] | A (Fold activation≧300%) | A′ (EC1.5<250 nM) |
| C[C@@H]1CN(CCOc2cc(C(=O)Nc3ccccc3-c3nc4cccnc4s3)nc(-c3ccccc3)c2)C[C@H](C)O1 [Compound 36] | A (Fold activation≧300%) | A′ (EC1.5<250 nM) |
| O=C(Nc1ccccc1-c1nc2cccnc2s1)c1cc(N2CCCNCC2)nc(-c2ccccc2)n1 [Compound 37] | A (Fold activation≧300%) | A′ (EC1.5<250 nM) |
| CN(C)c1cc(C(=O)Nc2ccccc2-c2nc3cccnc3s2)nc(-c2ccccc2)n1 [Compound 38] | B (Fold Activation≧150% and <300%) | B (EC1.5>1 and ≦10 uM) |
| CCN(CC)CCNc1cc(C(=O)Nc2ccccc2-c2nc3cccnc3s2)nc(-c2ccccc2)n1 [Compound 41] | A (Fold activation≧300%) | A′ (EC1.5<250 nM) |
| CCOC(=O)CCNc1cc(C(=O)Nc2ccccc2-c2nc3cccnc3s2)nc(-c2ccccc2)n1 [Compound 43] | B (Fold Activation≧150% and <300%) | A (EC1.5≧250 nM and ≦1 uM) |
| COCCN(C)c1cc(C(=O)Nc2ccccc2-c2nc3cccnc3s2)nc(-c2ccccc2)n1 [Compound 47] | A (Fold activation≧300%) | A′ (EC1.5<250 nM) |
| O=C(Nc1ccccc1-c1nc2cccnc2s1)c1cc(NCCN2CCNCC2)nc(-c2ccccc2)n1 [Compound 48] | A (Fold activation≧300%) | A′ (EC1.5<250 nM) |
| O=C(Nc1ccccc1-c1nc2cccnc2s1)c1cc(NC2CCNCC2)nc(-c2ccccc2)n1 [Compound 49] | A (Fold activation≧300%) | A′ (EC1.5<250 nM) |
| COCCN(C)CCOc1cc(C(=O)Nc2ccccc2-c2nc3cccnc3s2)nc(-c2ccccc2)c1 [Compound 50] | A (Fold activation≧300%) | A′ (EC1.5<250 nM) |
| CC(=O)NCCNc1cc(C(=O)Nc2ccccc2-c2nc3cccnc3s2)nc(-c2ccccc2)n1 [Compound 51] | A (Fold activation≧300%) | A′ (EC1.5<250 nM) |
| Cl.O=C(Nc1ccccc1-c1nc2cccnc2s1)c1cc(NCCN2CCOCC2)nc(-c2ccccc2)n1 [Compound 61] | A (Fold activation≧300%) | A′ (EC1.5<250 nM) |

From patent publication US20110009381A1, “SOLUBILIZED THIAZOLOPYRIDINES” (Sirtis Pharmaceuticals, Inc., priority 2007, published 2011)
